Activity calls are given as the source filed them. The rule behind the calls is not given here.
Tested on: rodent lifetime carcinogenesis bioassay, tumor incidence TD50
Assay: carcinogenic potency in animals, long-term in vivo studies, CPDB compilation (AID 1745844)

CCCCCNN
TD50 (mouse, strain Swiss albino, females, in drinking water, site: blood vessels, lesion: angioma, dosed 94 weeks, study length 94 weeks): 71.9 mg/kg/day | TD50 (mouse, strain Swiss albino, females, in drinking water, site: blood vessels, lesion: angiosarcoma, dosed 94 weeks, study length 94 weeks): 82.2 mg/kg/day | TD50 (mouse, strain Swiss albino, females, in drinking water, site: blood vessels, lesion: several types, types named in the paper, dosed 94 weeks, study length 94 weeks): 35.5 mg/kg/day | TD50 (mouse, strain Swiss albino, females, in drinking water, site: liver, lesion: several types, types named in the paper, dosed 94 weeks, study length 94 weeks): 223 mg/kg/day | TD50 (mouse, strain Swiss albino, females, in drinking water, site: lung, lesion: adenocarcinoma, dosed 94 weeks, study length 94 weeks): 18.7 mg/kg/day | TD50 (mouse, strain Swiss albino, females, in drinking water, site: lung, lesion: adenoma, dosed 94 weeks, study length 94 weeks): 7.95 mg/kg/day | TD50 (mouse, strain Swiss albino, females, in drinking water, site: lung, lesion: several types, types named in the paper, dosed 94 weeks, study length 94 weeks): 5.87 mg/kg/day | TD50 (mouse, strain Swiss albino, males, in drinking water, site: blood vessels, lesion: several types, types named in the paper, dosed 94 weeks, study length 94 weeks): 65.6 mg/kg/day | TD50 (mouse, strain Swiss albino, males, in drinking water, site: liver, lesion: several types, types named in the paper, dosed 94 weeks, study length 94 weeks): 271 mg/kg/day | TD50 (mouse, strain Swiss albino, males, in drinking water, site: lung, lesion: adenoma, dosed 94 weeks, study length 94 weeks): 30 mg/kg/day | TD50 (mouse, strain Swiss albino, males, in drinking water, site: lung, lesion: several types, types named in the paper, dosed 94 weeks, study length 94 weeks): 46.9 mg/kg/day

CCOP(=O)=O.CCOP(=O)=O.CCOP(=O)=O.[Al+3]
TD50 (rat, strain Charles River CD1, females, in feed, site: kidney/pelvis, lesion: several types, types named in the paper, dosed 104 weeks, study length 104 weeks): 14600 mg/kg/day | TD50 (rat, strain Charles River CD1, females, in feed, site: kidney/pelvis, lesion: transitional-cell carcinoma, dosed 104 weeks, study length 104 weeks): 17800 mg/kg/day | TD50 (rat, strain Charles River CD1, females, in feed, site: kidney/pelvis, lesion: transitional-cell papilloma, dosed 104 weeks, study length 104 weeks): 80400 mg/kg/day | TD50 (rat, strain Charles River CD1, females, in feed, site: urinary bladder, lesion: adenosquamous carcinoma, dosed 104 weeks, study length 104 weeks): 110000 mg/kg/day | TD50 (rat, strain Charles River CD1, females, in feed, site: urinary bladder, lesion: several types, types named in the paper, dosed 104 weeks, study length 104 weeks): 17600 mg/kg/day | TD50 (rat, strain Charles River CD1, females, in feed, site: urinary bladder, lesion: transitional-cell carcinoma, dosed 104 weeks, study length 104 weeks): 23900 mg/kg/day | TD50 (rat, strain Charles River CD1, females, in feed, site: urinary bladder, lesion: transitional-cell papilloma, dosed 104 weeks, study length 104 weeks): 452000 mg/kg/day | TD50 (rat, strain Charles River CD1, males, in feed, site: kidney/pelvis, lesion: several types, types named in the paper, dosed 104 weeks, study length 104 weeks): 36400 mg/kg/day | TD50 (rat, strain Charles River CD1, males, in feed, site: kidney/pelvis, lesion: transitional-cell papilloma, dosed 104 weeks, study length 104 weeks): 31800 mg/kg/day | TD50 (rat, strain Charles River CD1, males, in feed, site: urinary bladder, lesion: several types, types named in the paper, dosed 104 weeks, study length 104 weeks): 3660 mg/kg/day | TD50 (rat, strain Charles River CD1, males, in feed, site: urinary bladder, lesion: transitional-cell carcinoma, dosed 104 weeks, study length 104 weeks): 5000 mg/kg/day | TD50 (rat, strain Charles River CD1, males, in feed, site: urinary bladder, lesion: transitional-cell papilloma, dosed 104 weeks, study length 104 weeks): 17200 mg/kg/day

COc1cc(OC)c2c3c(c(=O)oc2c1)CCC3
carcinogen call (rat, strain Fischer, males, by gavage, site: liver, lesion: one or several types, types not named, dosed 52 weeks, study length 87 weeks): negative (inactive)

CC(=O)Nc1cccc2c1Cc1ccccc1-2
TD50 (rat, strain Buffalo, females, in feed, site: adrenal gland, lesion: carcinoma, dosed 47 weeks, study length 88 weeks): 54.8 mg/kg/day | TD50 (rat, strain Buffalo, females, in feed, site: all sites, lesion: leukemia, indeterminate type, dosed 47 weeks, study length 88 weeks): 54.8 mg/kg/day | TD50 (rat, strain Buffalo, females, in feed, site: ovary, lesion: granulosa-cell carcinoma, dosed 47 weeks, study length 88 weeks): 54.8 mg/kg/day | TD50 (rat, strain Buffalo, females, in feed, site: pituitary gland, lesion: adenoma, dosed 47 weeks, study length 88 weeks): 43.5 mg/kg/day | TD50 (rat, strain Buffalo, females, in feed, site: uterus, lesion: carcinosarcoma, dosed 47 weeks, study length 88 weeks): 54.8 mg/kg/day

O=S1(=O)CCCO1
TD50 (rat, strain Charles River CD (Sprague-Dawley), females, by gavage, site: all sites, lesion: granulocytic leukemia, dosed 46 weeks, study length 60 weeks): 18.6 mg/kg/day | TD50 (rat, strain Charles River CD (Sprague-Dawley), females, by gavage, site: cerebellum, lesion: malignant glioma, dosed 46 weeks, study length 60 weeks): 7.2 mg/kg/day | TD50 (rat, strain Charles River CD (Sprague-Dawley), females, by gavage, site: cerebrum, lesion: malignant glioma, dosed 46 weeks, study length 60 weeks): 4.06 mg/kg/day | TD50 (rat, strain Charles River CD (Sprague-Dawley), females, by gavage, site: mammary gland, lesion: adenocarcinoma, dosed 46 weeks, study length 60 weeks): 4.13 mg/kg/day | TD50 (rat, strain Charles River CD (Sprague-Dawley), females, by gavage, site: small intestine, lesion: adenocarcinoma, dosed 46 weeks, study length 60 weeks): 31.7 mg/kg/day | TD50 (rat, strain Charles River CD (Sprague-Dawley), males, by gavage, site: all sites, lesion: granulocytic leukemia, dosed 46 weeks, study length 60 weeks): 23.5 mg/kg/day | TD50 (rat, strain Charles River CD (Sprague-Dawley), males, by gavage, site: cerebellum, lesion: malignant glioma, dosed 46 weeks, study length 60 weeks): 4.75 mg/kg/day | TD50 (rat, strain Charles River CD (Sprague-Dawley), males, by gavage, site: cerebrum, lesion: malignant glioma, dosed 46 weeks, study length 60 weeks): 3.64 mg/kg/day | TD50 (rat, strain Charles River CD (Sprague-Dawley), males, by gavage, site: small intestine, lesion: adenocarcinoma, dosed 46 weeks, study length 60 weeks): 15.4 mg/kg/day

Source: PubChem BioAssay AID1745844 (Carcinogenic Potency Database (CPDB), 2022)
